Reference: patent US10118947B2, “Modulation of structured polypeptide specificity” (BICYCLE THERAPEUTICS LIMITED, priority 2013, dated 2018)
Where two headings read alike, the source gives them in different places. Numbered stars: 1 amine (or outer) side, 2 acyl side, 3 side chain; on linkers, the order of the positions; unused ones are H or OH. Bridge positions count the residues as written; N and C are the ends. Square brackets hold non-standard residues; d marks the D form. Peptide text beside a SMILES is read from it. TBMB = c1c(C[*:1])cc(C[*:3])cc1C[*:2]; NMeH = CN[C@@H](Cc1c[nH]cn1)C(=O)O; NMeQ = CN[C@@H](CCC(N)=O)C(=O)O; NMeD = CN[C@@H](CC(=O)O)C(=O)O; NMeL = CN[C@@H](CC(C)C)C(=O)O

Experiments:
human plasma Kallikrein = target: T1, human plasma Kallikrein (Homo sapiens, UniProt P03952); assay: Functional enzyme inhibition assay with fluorogenic substrate Z-PheArg-AMC, human plasma Kallikrein; assay type: biochemical; details: for Ki: read-out: Ki
T1 construct: purchased Stratech, UK
Summary of the method: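 Human plasma kallikrein at 26.5 pM was preincubated 15 minutes with test peptide in Tris/NaCl/MgCl2/CaCl2/BSA buffer pH7.4 at 25° C, then Z-PheArg-AMC added to 100 μM final in 4% DMSO.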

[1] = Plasma stability / fragment profiling Method #2 (MALDI-TOF, 95% plasma), human plasma; assay type: in vitro ADME; details: peptide fragments observed after incubation in human plasma
Method: To obtain stability data more rapidly, peptides were also assessed in 95% plasma. Here, PBS was omitted, and a 1 mM peptide stock (in DMSO) was directly diluted into plasma (i.e. 2.5 uL stock into 47.5 uL plasma), giving a final concentration of 50 uM. 5 uL samples were taken at appropriate time points and frozen at −80 deg C. For analysis, the samples were defrosted, mixed with 15 uL of 1:1 acetonitrile:methanol, and centrifuged at 13 k for 5 min. 5 uL of the peptide-containing supernatant was aspirated and mixed with 30 mM ammonium bicarbonate in a 1:1 mixture of acetonitrile:H2O. 1 uL of this was then spotted on the MALDI plate and analysed as described above. As above, it should be noted that this is a qualitative assay serves to detect relative changes in plasma stability.
Ac-06-34-18(TMB)-NH2 Phe2 Tyr4 (referred to as wild type peptide) was subsequently subjected to human plasma, and analysed for fragments to appear over time. This was compared to the degradation profile observed in human plasma using the NMe-Arg5 derivative of 06-34-18 (FIGS. 18a and 18b). Fragmentation was determined according to Method #2.

[2] = Table 3a, Alanine scan in Loop2
[3] = Table 3a, ratio of Ki to wild type
[4] = Table 25a, fold change of Ki of variant compared to WT
[5] = Table 25a, α-N-methyl amino acid scan in Loop2, human plasma kallikrein
[6] = Table 3b, D-amino acid scan in Loop2
[7] = Table 3b, ratio of Ki to wild type

T1 sequence (P03952 20-638): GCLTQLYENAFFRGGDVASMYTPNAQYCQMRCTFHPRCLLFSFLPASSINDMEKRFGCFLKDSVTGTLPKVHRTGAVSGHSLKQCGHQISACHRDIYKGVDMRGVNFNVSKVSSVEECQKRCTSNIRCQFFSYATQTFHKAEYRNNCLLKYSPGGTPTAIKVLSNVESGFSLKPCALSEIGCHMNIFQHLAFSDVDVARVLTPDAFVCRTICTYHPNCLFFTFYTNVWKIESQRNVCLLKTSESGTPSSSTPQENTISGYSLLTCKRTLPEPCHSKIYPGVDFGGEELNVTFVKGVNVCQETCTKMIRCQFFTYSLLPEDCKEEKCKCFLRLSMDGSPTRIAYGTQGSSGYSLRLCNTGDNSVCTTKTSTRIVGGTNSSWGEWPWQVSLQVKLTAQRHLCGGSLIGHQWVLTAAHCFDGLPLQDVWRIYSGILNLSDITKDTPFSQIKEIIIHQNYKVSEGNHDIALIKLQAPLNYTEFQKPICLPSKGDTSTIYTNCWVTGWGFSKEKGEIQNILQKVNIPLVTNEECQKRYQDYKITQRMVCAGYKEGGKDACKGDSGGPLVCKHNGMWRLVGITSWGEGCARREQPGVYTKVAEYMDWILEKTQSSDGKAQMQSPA

| SMILES | Ki (human plasma Kallikrein; [2]) | F (Kivar/KiWT) (human plasma Kallikrein; [3]) | Fragments (human plasma) ([1]; Table 3a) | F (Kivar/KiWT) (human plasma Kallikrein; [4]) | Ki (human plasma Kallikrein; [5]) | Fragments (human plasma) ([1]; Table 25a) | Ki (human plasma Kallikrein; [6]) | F (Kivar/KiWT) (human plasma Kallikrein; [7]) | Fragments (human plasma) ([1]; Table 3b) | other results |
| --- | --- | --- | --- | --- | --- | --- | --- | --- | --- | --- |
| CC(=O)N[C@H]1CSCc2cc3cc(c2)CSC[C@H](NC(=O)[C@H](CCCNC(=N)N)NC(=O)[C@H](Cc2ccc(O)cc2)NC(=O)[C@@H]2CCCN2C(=O)[C@H](Cc2ccccc2)NC(=O)[C@H](CO)NC1=O)C(=O)N[C@@H](CC(C)C)C(=O)N[C@@H](Cc1c[nH]cn1)C(=O)N[C@@H](C)C(=O)N[C@@H](CC(=O)O)C(=O)N[C@@H](CC(C)C)C(=O)N[C@H](C(N)=O)CSC3 [Ac-(06-34-18) Phe2 Tyr4 Ala8] (Ac-CSFPYRCLHADLC-NH2; linker 1-7-13 via TBMB) | 1.74 nM | 4 | -LHQ, -R |  |  |  |  |  |  |  |
| CC(=O)N[C@H]1CSCc2cc3cc(c2)CSC[C@H](NC(=O)[C@H](CCCNC(=N)N)NC(=O)[C@H](Cc2ccc(O)cc2)NC(=O)[C@@H]2CCCN2C(=O)[C@H](Cc2ccccc2)NC(=O)[C@H](CO)NC1=O)C(=O)N[C@@H](CC(C)C)C(=O)N[C@@H](Cc1c[nH]cn1)C(=O)N[C@H](CCC(N)=O)C(=O)N[C@@H](CC(=O)O)C(=O)N[C@@H](CC(C)C)C(=O)N[C@H](C(N)=O)CSC3 [Ac-(06-34-18) Phe2 Tyr4 D-Gln8] (Ac-CSFPYRCLH[dQ]DLC-NH2; linker 1-7-13 via TBMB) |  |  |  |  |  |  | 317 nM | 755 | -R, -FPYR |  |
| CC(=O)N[C@H]1CSCc2cc3cc(c2)CSC[C@H](NC(=O)[C@H](CCCNC(=N)N)NC(=O)[C@H](Cc2ccc(O)cc2)NC(=O)[C@@H]2CCCN2C(=O)[C@H](Cc2ccccc2)NC(=O)[C@H](CO)NC1=O)C(=O)N[C@@H](CC(C)C)C(=O)N[C@@H](Cc1c[nH]cn1)C(=O)N[C@@H](CCC(N)=O)C(=O)N[C@@H](C)C(=O)N[C@@H](CC(C)C)C(=O)N[C@H](C(N)=O)CSC3 [Ac-(06-34-18) Phe2 Tyr4 Ala9] (Ac-CSFPYRCLHQALC-NH2; linker 1-7-13 via TBMB) | 1.58 nM | 4 | -LHQDL, -R |  |  |  |  |  |  |  |
| CC(=O)N[C@H]1CSCc2cc3cc(c2)CSC[C@H](NC(=O)[C@H](CCCNC(=N)N)NC(=O)[C@H](Cc2ccc(O)cc2)NC(=O)[C@@H]2CCCN2C(=O)[C@H](Cc2ccccc2)NC(=O)[C@H](CO)NC1=O)C(=O)N[C@@H](CC(C)C)C(=O)N(C)[C@@H](Cc1cnc[nH]1)C(=O)N[C@@H](CCC(N)=O)C(=O)N[C@@H](CC(=O)O)C(=O)N[C@@H](CC(C)C)C(=O)N[C@H](C(N)=O)CSC3 [Ac-(06-34-18) Phe2 Tyr4 NMe-His7] (Ac-CSFPYRCL[NMeH]QDLC-NH2; linker 1-7-13 via TBMB) |  |  |  | 151 | 63.5 nM | -R, -FPYR |  |  |  |  |
| CC(=O)N[C@H]1CSCc2cc3cc(c2)CSC[C@H](NC(=O)[C@H](CCCNC(=N)N)NC(=O)[C@H](Cc2ccc(O)cc2)NC(=O)[C@@H]2CCCN2C(=O)[C@H](Cc2ccccc2)NC(=O)[C@H](CO)NC1=O)C(=O)N[C@@H](CC(C)C)C(=O)N[C@@H](Cc1c[nH]cn1)C(=O)N[C@@H](CCC(N)=O)C(=O)N[C@@H](CC(=O)O)C(=O)N[C@@H](C)C(=O)N[C@H](C(N)=O)CSC3 [Ac-(06-34-18) Phe2 Tyr4 Ala10] (Ac-CSFPYRCLHQDAC-NH2; linker 1-7-13 via TBMB) | 13.5 nM | 32 | -LHQ, -LHQDL, -R |  |  |  |  |  |  |  |
| CC(=O)N[C@H]1CSCc2cc3cc(c2)CSC[C@H](NC(=O)[C@H](CCCNC(=N)N)NC(=O)[C@H](Cc2ccc(O)cc2)NC(=O)[C@@H]2CCCN2C(=O)[C@H](Cc2ccccc2)NC(=O)[C@H](CO)NC1=O)C(=O)N[C@@H](CC(C)C)C(=O)N[C@@H](C)C(=O)N[C@@H](CCC(N)=O)C(=O)N[C@@H](CC(=O)O)C(=O)N[C@@H](CC(C)C)C(=O)N[C@H](C(N)=O)CSC3 [Ac-(06-34-18) Phe2 Tyr4 Ala7] (Ac-CSFPYRCLAQDLC-NH2; linker 1-7-13 via TBMB) | 23.4 nM | 56 | -R |  |  |  |  |  |  | Kd (human plasma Kallikrein): 23 nM; reduction in potency/affinity compared to wildtype (human plasma Kallikrein): 56 fold |

Continued, in another order:

| Ki (human plasma Kallikrein; [2]) | F (Kivar/KiWT) (human plasma Kallikrein; [3]) | Fragments (human plasma) ([1]; Table 3a) | F (Kivar/KiWT) (human plasma Kallikrein; [4]) | Ki (human plasma Kallikrein; [5]) | Fragments (human plasma) ([1]; Table 25a) | Ki (human plasma Kallikrein; [6]) | F (Kivar/KiWT) (human plasma Kallikrein; [7]) | Fragments (human plasma) ([1]; Table 3b) | SMILES | other results |
| --- | --- | --- | --- | --- | --- | --- | --- | --- | --- | --- |
|  |  |  | 149 | 62.8 nM | -R, -FPYR |  |  |  | CC(=O)N[C@H]1CSCc2cc3cc(c2)CSC[C@H](NC(=O)[C@H](CCCNC(=N)N)NC(=O)[C@H](Cc2ccc(O)cc2)NC(=O)[C@@H]2CCCN2C(=O)[C@H](Cc2ccccc2)NC(=O)[C@H](CO)NC1=O)C(=O)N[C@@H](CC(C)C)C(=O)N[C@@H](Cc1c[nH]cn1)C(=O)N(C)[C@@H](CCC(N)=O)C(=O)N[C@@H](CC(=O)O)C(=O)N[C@@H](CC(C)C)C(=O)N[C@H](C(N)=O)CSC3 [Ac-(06-34-18) Phe2 Tyr4 NMe-Gln8] (Ac-CSFPYRCLH[NMeQ]DLC-NH2; linker 1-7-13 via TBMB) |  |
|  |  |  |  |  |  | 9080 nM | 21615 | -R, -FPYR | CC(=O)N[C@H]1CSCc2cc3cc(c2)CSC[C@H](NC(=O)[C@H](CCCNC(=N)N)NC(=O)[C@H](Cc2ccc(O)cc2)NC(=O)[C@@H]2CCCN2C(=O)[C@H](Cc2ccccc2)NC(=O)[C@H](CO)NC1=O)C(=O)N[C@H](CC(C)C)C(=O)N[C@@H](Cc1c[nH]cn1)C(=O)N[C@@H](CCC(N)=O)C(=O)N[C@@H](CC(=O)O)C(=O)N[C@@H](CC(C)C)C(=O)N[C@H](C(N)=O)CSC3 [Ac-(06-34-18) Phe2 Tyr4 D-Leu6] (Ac-CSFPYRC[dL]HQDLC-NH2; linker 1-7-13 via TBMB) |  |
|  |  |  |  |  |  | 129 nM | 308 | -R, -FPYR | CC(=O)N[C@H]1CSCc2cc3cc(c2)CSC[C@H](NC(=O)[C@H](CCCNC(=N)N)NC(=O)[C@H](Cc2ccc(O)cc2)NC(=O)[C@@H]2CCCN2C(=O)[C@H](Cc2ccccc2)NC(=O)[C@H](CO)NC1=O)C(=O)N[C@@H](CC(C)C)C(=O)N[C@H](Cc1c[nH]cn1)C(=O)N[C@@H](CCC(N)=O)C(=O)N[C@@H](CC(=O)O)C(=O)N[C@@H](CC(C)C)C(=O)N[C@H](C(N)=O)CSC3 [Ac-(06-34-18) Phe2 Tyr4 D-His7] (Ac-CSFPYRCL[dH]QDLC-NH2; linker 1-7-13 via TBMB) |  |
|  |  |  | 137 | 57.4 nM | -R, -FPYR |  |  |  | CC(=O)N[C@H]1CSCc2cc3cc(c2)CSC[C@H](NC(=O)[C@H](CCCNC(=N)N)NC(=O)[C@H](Cc2ccc(O)cc2)NC(=O)[C@@H]2CCCN2C(=O)[C@H](Cc2ccccc2)NC(=O)[C@H](CO)NC1=O)C(=O)N(C)[C@@H](CC(C)C)C(=O)N[C@@H](Cc1c[nH]cn1)C(=O)N[C@@H](CCC(N)=O)C(=O)N[C@@H](CC(=O)O)C(=O)N[C@@H](CC(C)C)C(=O)N[C@H](C(N)=O)CSC3 [Ac-(06-34-18) Phe2 Tyr4 NMe-Leu6] (Ac-CSFPYRC[NMeL]HQDLC-NH2; linker 1-7-13 via TBMB) |  |
|  |  |  | 105 | 44.3 nM | -R, -FPYR |  |  |  | CC(=O)N[C@H]1CSCc2cc3cc(c2)CSC[C@H](NC(=O)[C@H](CCCNC(=N)N)NC(=O)[C@H](Cc2ccc(O)cc2)NC(=O)[C@@H]2CCCN2C(=O)[C@H](Cc2ccccc2)NC(=O)[C@H](CO)NC1=O)C(=O)N[C@@H](CC(C)C)C(=O)N[C@@H](Cc1c[nH]cn1)C(=O)N[C@@H](CCC(N)=O)C(=O)N(C)[C@@H](CC(=O)O)C(=O)N[C@@H](CC(C)C)C(=O)N[C@H](C(N)=O)CSC3 [Ac-(06-34-18) Phe2 Tyr4 NMe-Asp9] (Ac-CSFPYRCLHQ[NMeD]LC-NH2; linker 1-7-13 via TBMB) |  |
|  |  |  |  |  |  | 416 nM | 990 | -R, -FPYR | CC(=O)N[C@H]1CSCc2cc3cc(c2)CSC[C@H](NC(=O)[C@H](CCCNC(=N)N)NC(=O)[C@H](Cc2ccc(O)cc2)NC(=O)[C@@H]2CCCN2C(=O)[C@H](Cc2ccccc2)NC(=O)[C@H](CO)NC1=O)C(=O)N[C@@H](CC(C)C)C(=O)N[C@@H](Cc1c[nH]cn1)C(=O)N[C@@H](CCC(N)=O)C(=O)N[C@@H](CC(=O)O)C(=O)N[C@H](CC(C)C)C(=O)N[C@H](C(N)=O)CSC3 [Ac-(06-34-18) Phe2 Tyr4 D-Leu10] (Ac-CSFPYRCLHQD[dL]C-NH2; linker 1-7-13 via TBMB) |  |
|  |  |  | 1396 | 586 nM | -R, -FPYR |  |  |  | CC(=O)N[C@H]1CSCc2cc3cc(c2)CSC[C@H](NC(=O)[C@H](CCCNC(=N)N)NC(=O)[C@H](Cc2ccc(O)cc2)NC(=O)[C@@H]2CCCN2C(=O)[C@H](Cc2ccccc2)NC(=O)[C@H](CO)NC1=O)C(=O)N[C@@H](CC(C)C)C(=O)N[C@@H](Cc1c[nH]cn1)C(=O)N[C@@H](CCC(N)=O)C(=O)N[C@@H](CC(=O)O)C(=O)N(C)[C@@H](CC(C)C)C(=O)N[C@H](C(N)=O)CSC3 [Ac-(06-34-18) Phe2 Tyr4 NMe-Leu10] (Ac-CSFPYRCLHQD[NMeL]C-NH2; linker 1-7-13 via TBMB) |  |
